Data on six molecules can be found in patent US8470805B2, “Processes for preparing piperazinium salts of KMUP and use thereof” (Kaohsiung Medical University, priority 2009, dated 2013).

A word on the IC50: it is the concentration needed to halve the response being measured. A low value points to inhibition by little substance.

For one assay, the system named is TGF-β. In words: Bleomycin-induced lung fibrosis in mice, TGF-β expression by EIA. The assay is classed as in vivo. To be noted: 2.5 mg/kg orally, bleomycin 60 mg/kg. The protocol:
6. KMUP-1 salts inhibit the lung fibrosis in mice induced by bleomycin (BM) mediated via transforming growth factor beta (TGF-β) expression in lung The increased amount of the synthetic collagen and the generation of the macrophage in alveolus may facilitate the formulation of TGF-β, and the expression of TGF-β is looked as a biomarker of the lung fibrosis. […] The state of the TGF-β expression in the irrigation solution is measured by the enzyme immunoassay (EIA).

For assay [1], the system named is STZ-induced diabetic rats. Description: Change of insulin and fasting blood glucose after administration, STZ-induced diabetic rats. The assay is classed as in vivo. As to the method:
Nateglinide, repaglinide or the placebo is administered on day 1 before one hour of the breakfast, and the KMUP-1/KMUP-1-Nateglinide or KMUP-1-Repaglinide are orally administered at 1, 2, 3, 4, 5 and 6 hrs respectively. The amount of the serum glucose (mg/dl), the amount of the serum insulin (mg/dl), the body weight (g) and the change of the body weight are measured.

Another assay relates to L1210 leukemia cell line. In words: Cytotoxicity to cancer cells, MTT assay. Type of assay: cell-based. To be noted: 3 days, n=6.
Assay [2] relates to STZ-induced diabetic rats. In words: Serum glucose and body weight in streptozosin (STZ)-induced diabetic rats. The assay is classed as in vivo. As to conditions: after 21 days. The protocol: 2. The effect of KMUP-1 on decreasing the amount of the serum glucose in streptozosin (STZ)-induced diabetic rats
60 mg/kg of streptozosin is injected intravenously for inducing the STZ-induced rats, and the KMUP-1 HCl salt (0.5, 1.5, 2.5 and 5 mg/kg) and KMUP-1-Simvastatinic acid (5 mg/kg) are administered orally. After 21 days, the amount of the serum glucose (mg/dl), the amount of the serum insulin (mg/dl), the body weight (g) and the change of the body weight are measured.

For assay [3], the system named is U46619-induced platelet aggregation. Description: Antiplatelet aggregation activity (U46619-induced, turbidity, Lumi-aggregometer). Type of assay: cell-based. To be noted: 20 μM, rabbit platelets, n=8. The protocol: 4. […] After centrifuging at […] for 10 mins, the supernatant is platelet-rich plasma (PRP). The platelet suspension is obtained from EDTA-anticoagulated PRP, and the platelet granules are finally suspended in the Tyrode's solution. […] The turbidity is measured at 37° C. by Lumi-aggregometer connected with two dual channel recorders as the aggregation.

The subject of assay [4] is C57BL/6J mice. In words: The amount of the serum glucose and insulin in C57BL/6J mice (high-fat diet). As to conditions: 1 mg/kg orally, HFD, after 21 days. The assay is classed as in vivo. The protocol:
(§1) 8-week C57BL/6J mice are divided into standard diet (STD) group and the high-fat diet (HFD) group. In the HFD group, the KMUP-1 HCl salt (1, 2.5 and 5 mg/kg), the simvastatin (5 mg/kg), the KMUP-1-Nicotinic acid complex (1 and 5 mg/kg), the KMUP-1-Simvastatinic acid complex (1 and 5 mg/kg), KMUP-1-Gemfibrozil complex (2.5 mg/kg), KMUP-1-Fibric acid complex (2.5 mg/kg), KMUP-1-γ-polyglutamic acid complex (2.5 mg/kg) and KMUP-1-Citric acid complex (2.5 mg/kg) are administered orally. After 21 days, the amounts (mg/dl) of the triglyceride (TG), the total cholesterol (tot.-C), the high density lipoprotein cholesterol (HDL-C), the low density lipoprotein cholesterol (LDL-C) and the serum glucose of six mice for each group are measured as shown in Tables 2 and 3.

The next assay relates to H1N1 virus. Type of assay: cell-based. As to conditions: MDCK culture infected with H1N1 virus.
The next assay concerns RAW 264.7 cells. Description: Inhibition of RANKL-induced osteoclast differentiation (TRAP staining). The assay is classed as cell-based. As to conditions: 5 μM, RANKL 10 μg/ml, 5 days, n=5.
Assay [5] deals with testosterone-induced mice. In words: Prostate hypertrophy (BPH) in testosterone-induced mice. The assay is classed as in vivo. To be noted: 2.5 mg/kg, testosterone 3 mg/kg/day for 4 weeks, day 28, n=6.
Procedure: The testosterone (TS, 3 mg/kg/day) is administered for 4 weeks for inducing BPH in mice, which combines with KMUP-1 HCl salt (2.5 mg/kg), KMUP-1-Citric acid (2.5 mg/kg) and KMUP-1-Nicotinic acid (2.5 mg/kg), and the ratio of hypertrophy (g)/body weight (g) is measured at day 28 (n=6).
For assay [6], the system named is monocrotaline (MCT)-treated rats. In words: Pulmonary artery blood pressure in monocrotaline (MCT)-treated rats. Type of assay: in vivo, male Wistar rats. As to conditions: 2.5 mg/kg/day p.o. The protocol: 5. the monocrotaline (MCT)-treated rats show the […] pulmonary aterial hypertension
Pulmonary aterial hypertension in MCT-treated rats is caused on day 21 after the intraperitoneal injection. Orally administered KMUP-1 HCl salt (2.5 mg/kg), simvastatin (2.5 mg/kg), KMUP-1-nicotinic acid complex (2.5 mg/kg), KMUP-1-Citric acid complex (2.5 mg/kg), KMUP-1-Simvastatinic acid complex (2.5 mg/kg) and KMUP-1-γ-Polyglutamic acid complex (2.5 mg/kg), or the inhalated KMUP-1-PGI2 (0.1 mM) every day may inhibit the male Wistar rats treated with MCT, which show the effect of decreasing the pulmonary artery blood pressure (PABP).

In assay [7] the test system is C57BL/6J mice. Description: The lipid-lowering effect in C57BL/6J mice (high-fat diet). To be noted: HFD, after 21 days. The assay is classed as in vivo. As to the method: as §1

Procedure for L1210 leukemia cell line: The methotrexate (MTX) is served as the positive control group. Briefly, the cancer cells (5000-10000 cells/ml) is added together with the compounds to be tested into each well of 96-well plate. After culturing for 3 days, the attached cells are cultured in MTT (0.5 mg/ml) for one hour, followed by dissolving the formazan crystal with dimethyl sulfoxide (DMSO). The absorption at 550 nm wave length is measured by the enzyme linked immunosorbent assay (ELISA) reader. IC50 is the concentration of the tested compound for inhibiting 50% cell growth under the experimental conditions.

Take `Cl.Cn1c(=O)c2c(ncn2CCN2CCN(c3ccccc3Cl)CC2)n(C)c1=O` [KMUP-1 HCl salt, 7-[2-[4-(2-chlorobenzene)piperazinyl]ethyl]-1,3-dimethyl xanthine HCl]: the “Changing % of the lung TGF-β” value in the assay with TGF-β came to 52 ± 5.2 %. In addition, the “The change of the fasting blood glucose after administration” value in assay [1] (1 mg/kg, 1 hr) stood at 3.7 ± 0.6 mg/dL; in [1] (1 mg/kg, 2 hr), 2.3 ± 0.7 mg/dL; in [1] (1 mg/kg, 6 hr), 0.1 ± 0.5 mg/dL; in [1] (2 mg/kg, 1 hr), 4.3 ± 0.4 mg/dL; in assay [1] (2 mg/kg, 2 hr), 2.5 ± 0.2 mg/dL; in [1] (2 mg/kg, 6 hr), 0.3 ± 0.7 mg/dL. For the same molecule, the “The change of the fasting blood glucose after administration” value was 5.2 ± 0.9 mg/dL in assay [1] (3 mg/kg, 1 hr); 1.7 ± 0.1 mg/dL in assay [1] (3 mg/kg, 2 hr); -0.1 ± 0.3 mg/dL in assay [1] (3 mg/kg, 6 hr); 5.7 ± 0.8 mg/dL in assay [1] (4 mg/kg, 1 hr); 1.5 ± 0.2 mg/dL in assay [1] (4 mg/kg, 2 hr); -0.3 ± 0.1 mg/dL in assay [1] (4 mg/kg, 6 hr). Also, the “The change of the insulin after administration” value (shortened to “The change of the insulin”) came to 10.1 ± 1.8 U/mL in assay [1] (1 mg/kg, 1 hr); 16.4 ± 2.2 U/mL in assay [1] (1 mg/kg, 2 hr); 12.6 ± 2.4 U/mL in [1] (1 mg/kg, 3 hr); 6.7 ± 2.4 U/mL in assay [1] (1 mg/kg, 4 hr); 1.8 ± 0.7 U/mL in assay [1] (1 mg/kg, 6 hr); 26.4 ± 1.3 U/mL in assay [1] (2 mg/kg, 1 hr). In addition, the “The change of the insulin” value is recorded as 30.6 ± 4.6 U/mL in [1] (2 mg/kg, 2 hr); 13.8 ± 3.6 U/mL in [1] (2 mg/kg, 3 hr); 9.5 ± 1.7 U/mL in assay [1] (2 mg/kg, 4 hr); 4.6 ± 0.8 U/mL in assay [1] (2 mg/kg, 6 hr); 38.2 ± 3.8 U/mL in assay [1] (3 mg/kg, 1 hr); 32.6 ± 6.4 U/mL in assay [1] (3 mg/kg, 2 hr). Also, the “The change of the insulin” value in assay [1] (3 mg/kg, 3 hr) is 21.4 ± 2.6 U/mL; in assay [1] (3 mg/kg, 4 hr), 18.4 ± 2.4 U/mL; in assay [1] (3 mg/kg, 6 hr), 7.4 ± 3.6 U/mL; in assay [1] (4 mg/kg, 1 hr), 37.4 ± 3.6 U/mL; in assay [1] (4 mg/kg, 2 hr) it was 47.3 ± 2.3 U/mL; in [1] (4 mg/kg, 3 hr) it was 27.8 ± 2.8 U/mL. Besides, the “The change of the insulin” value is recorded as 14.8 ± 3.7 U/mL in assay [1] (4 mg/kg, 4 hr) and 2.8 ± 0.5 U/mL in assay [1] (4 mg/kg, 6 hr). Further, the IC50 in the assay with L1210 leukemia cell line was 26 nM; in the assay with H1N1 virus (n=6), 5.2 µg/mL. Also, the “The amount of the serum glucose” value in assay [2] (0.5 mg/kg orally) was 215.4 ± 19.6 mg/dL; in assay [2] (1.5 mg/kg orally), 215.4 ± 23.8 mg/dL; in assay [2] (2.5 mg/kg orally), 210.4 ± 15.7 mg/dL; in assay [2] (5 mg/kg orally) it was 200.2 ± 14.2 mg/dL. Further, the “The ratio of the antiplatelet aggregation” value (shortened to “The ratio”) in assay [3] was found to be 89 ± 3.4 %. Further, in the assay with C57BL/6J mice [4], the “The amount of serum glucose” value stood at 120.4 ± 4.2 mg/dL. The “growth of the virus (in words)” value with H1N1 virus (in glucose solution) is listed as “can inhibit the growth of the virus”. The “TRAP-Positive Cells” value with RAW 264.7 cells worked out at 80 ± 6. Besides, the “hypertrophy (g)/body weight (g)” value in assay [5] turned out to be 0.21 ± 0.04. The same molecule came in with a PABP in assay [6] of 13 ± 1.7 mmHg. For the same molecule, the HDL-C was 103.55 ± 4.2 mg/dL in the assay with C57BL/6J mice [7] (2.5 mg/kg orally) and 118.32 ± 5.7 mg/dL with C57BL/6J mice [7] (5 mg/kg orally). In addition, the LDL-C with C57BL/6J mice [7] (2.5 mg/kg orally) was found to be 14.17 ± 1.4 mg/dL; with C57BL/6J mice [7] (5 mg/kg orally), 14.2 ± 2.2 mg/dL. In addition, the TG in the assay with C57BL/6J mice [7] (2.5 mg/kg orally) turned out to be 74.5 ± 5.1 mg/dL; in the assay with C57BL/6J mice [7] (5 mg/kg orally) it was 72.67 ± 4.7 mg/dL. Besides, the tot.-C came to 133 ± 5.1 mg/dL in the assay on C57BL/6J mice [7] (2.5 mg/kg orally) and 125.5 ± 9.8 mg/dL in the assay with C57BL/6J mice [7] (5 mg/kg orally).

For the molecule `Cn1c(=O)c2c(ncn2CCN2CCN(c3ccccc3Cl)CC2)n(C)c1=O.O=C(O)CC(O)(CC(=O)O)C(=O)O` [KMUP-1-Citric acid, KMUP-1-Citric acid salt], in [3], the “The ratio” value is 78 ± 2.7 %. Further, the “hypertrophy (g)/body weight (g)” value in assay [5] is 0.23 ± 0.05. Moreover, the PABP in assay [6] is 16 ± 1.8 mmHg. In the assay on C57BL/6J mice [7] (2.5 mg/kg orally), this molecule had an HDL-C of 108.4 ± 1.3 mg/dL, an LDL-C of 16.4 ± 1.7 mg/dL, a TG of 83.2 ± 5.3 mg/dL and a tot.-C of 129.7 ± 1.6 mg/dL.

Take `COc1ccc2c(c1)c(CC(=O)O)c(C)n2C(=O)c1ccc(Cl)cc1.Cn1c(=O)c2c(ncn2CCN2CCN(c3ccccc3Cl)CC2)n(C)c1=O` [KMUP-1-Indomethacin, KMUP-1-Indomethacin complex]: the “The ratio” value in assay [3] turned out to be 92 ± 5.8 %.

Consider `CN(Cc1cnc2nc(N)nc(N)c2n1)c1ccc(C(=O)N[C@@H](CCC(=O)O)C(=O)O)cc1.Cn1c(=O)c2c(ncn2CCN2CCN(c3ccccc3Cl)CC2)n(C)c1=O` [KMUP-1-MTX, KMUP-1-Methotrexate (MTX) Complex], for which, in the assay with L1210 leukemia cell line, the IC50 was determined as 20 nM.

As for `Cn1c(=O)c2c(ncn2CCN2CCN(c3ccccc3Cl)CC2)n(C)c1=O.O=C(O)c1cccnc1` [KMUP-1-Nicotinic acid, KMUP-1-Nicotinic acid salt], the “Changing % of the lung TGF-β” value in the assay on TGF-β was 42 ± 3.8 %. Also, the “The amount of serum glucose” value in the assay with C57BL/6J mice [4] amounted to 123.5 ± 2.5 mg/dL. In [5], the “hypertrophy (g)/body weight (g)” value is on record as 0.19 ± 0.07. For the same molecule, in assay [6], the PABP is 12 ± 2.6 mmHg. In the assay with C57BL/6J mice [7] (5 mg/kg orally), the HDL-C worked out at 97.98 ± 3.4 mg/dL, the LDL-C worked out at 13.8 ± 1.2 mg/dL, the TG was 80.75 ± 7.9 mg/dL and the tot.-C is 130 ± 4.1 mg/dL.

As for `CN(Cc1cnc2nc(N)nc(N)c2n1)c1ccc(C(=O)N[C@@H](CCC(=O)O)C(=O)O)cc1` [MTX, methotrexate, reference compound], the IC50 with L1210 leukemia cell line (Mus musculus, 72 h) stood at 12 nM.
